Tested on: 743489-274-T-PDC complex spheroid viability
Test: Anticancer human tumor 743489-274-T-PDC patient-derived renal cell carcinoma cell line growth inhibition
Details: for IC50: curve of first compound; for viability, T/C: stronger effect = lower value
Source text: Multicellular complex tumor spheroid response to LSD1 Inhibitor Iadademstat in combination with a variety of drugs and investigational agents in selected tumor cell lines
The current study was undertaken to assess response to LSD1 inhibitors in combination with standard-of-care drugs and investigational agents in solid tumor complex spheroid models as well as in the K-562 leukemia. Complex spheroids include a stromal component modeled by human endothelial cells (HUVEC) and fibroblasts modeled by human mesenchymal stem cells (MSCs). The concentration ranges selected for each drug and investigational agent were based upon clinically achievable concentrations if the clinical Cmax of the agent was known.
Compounds. The drugs and investigational agents used in this study are listed on Table 1. All of the agents used, including staurosporine (NSC755774) and gemcitabine (NSC613327), were obtained from the Developmental Therapeutics Program, NCI. FDA-approved anticancer drugs are available from the NCI at http://dtp.nci.nih.gov/branches/dscb/oncology_drugset_explanation.html. Drugs and investigational agents were >95% pure by proton nuclear magnetic resonance (NMR) and liquid chromatography/mass spectrometry (LC/MS). Stock solutions were prepared at 400x in DMSO, stored at -70 degrees C, and diluted in fresh medium prior to their use. The final concentration of DMSO in cell culture wells never exceeded 0.25% (v/v). The FDA-approved anticancer drug set is available from the Developmental Therapeutics Program at https://dtp.cancer.gov/organization/dscb/obtaining/available_plates.htm. All drugs and investigational agents were tested over a range starting from a high concentration at or near the clinical Cmax and decreasing in half-log increments. If the clinical Cmax for an agent had not been determined, the highest concentration tested was 10 microM.
Cell Lines. The patient-derived cancer cell (PDC) lines: 292921-168-R-J2-PDC, K24384-001-R-PDC, and 521955-158-R2-J5-PDC pancreatic carcinomas, 556581-035-R-J1 ovarian carcinoma, 324938-238-R-J1-PDC, 855422-203-R-J1-PDC and 883617-216-R-J1-PDC urothelial bladder carcinomas, 743489-274-T-PDC renal cell carcinoma, 138582-R-J1 Merkel cell tumor, K60290-347-R-J1 and K57222-313-R-J1-PDC glioblastomas, 653999-131-R-J2-PDC, LG0703-F948-PDC, and 349418-098-R-PDC non-small cell lung carcinomas, 885512-296-R-J2-PDC, 171881-019-R-J1-PDC breast carcinomas and 186277-243-T-J2-PDC and 233499-124-R-J2-PDC colon carcinomas were obtained from the NCI Patient-Derived Models Repository (PDMR, https://pdmr.cancer.gov). The established cell lines NCI/ADR-RES (RRID:CVCL_14520 and OVCAR-5 (RRID:CVCL_1628) ovarian carcinomas, 786-O (RRID:CVCL_1051) and A498 (RRID:CVCL_A498) renal cell carcinoma, NCI-H211 (ATCC, cat. CRL-5824; RRID:CVCL_1529), NCI-H196 (ATCC, cat. CRL-5823, RRID:CVCL_1509), SW 1271 (ATCC, cat. CRL-2177, RRID:CVCL_1716) and NCI-H1876 (ATCC, cat. CRL-5902, RRID:CVCL_1503) small cell lung carcinomas, MDA-MB-231 (RRID:CVCL_0062) and MDA-MB-468 (RRID:CVCL_0419)breast carcinomas (10-12). Pooled donor human umbilical vein endothelial cells (HUVEC, Lonza, cat. CC-2519) and human mesenchymal stem cells (hMSC, Lonza, cat. PT-2501) were purchased from Lonza (Walkersville, MD).
Cell Culture. All cells were maintained in an incubator at 37 degrees C and 5% CO2 with 95% humidity. The PDC lines were cultured according to standard operating procedures established by the NCI PDMR (https://pdmr.cancer.gov). Briefly all PDCs were thawed and cultured in Matrigel-coated flasks prepared with a working solution of 1X Ham's F-12 nutrient mix, without supplementation (Invitrogen, Waltham, MA, cat. 11765054), 100 U/mL penicillin-streptomycin (Invitrogen, cat. 15140122), and 2.5% Matrigel (Corning Inc., Corning, NY, cat. 354248) for the first three passages. […]

[1] = second compound 0.1 µM, first compound 0.000949 µM
[2] = second compound 0.1 µM, first compound 0.003 µM
[3] = second compound 0.1 µM, first compound 0.00949 µM
[4] = second compound 0.1 µM, first compound 0.03 µM
[5] = second compound 0.1 µM, first compound 0.0949 µM
[6] = second compound 0.1 µM, first compound 0.3 µM
[7] = second compound 0.316 µM, first compound 0.000949 µM
[8] = second compound 0.316 µM, first compound 0.003 µM
[9] = second compound 0.316 µM, first compound 0.00949 µM
[10] = second compound 0.316 µM, first compound 0.03 µM
[11] = second compound 0.316 µM, first compound 0.0949 µM
[12] = second compound 0.316 µM, first compound 0.3 µM
[13] = second compound 1 µM, first compound 0.000949 µM
[14] = second compound 1 µM, first compound 0.003 µM
[15] = second compound 1 µM, first compound 0.00949 µM
[16] = second compound 1 µM, first compound 0.03 µM
[17] = second compound 1 µM, first compound 0.0949 µM
[18] = second compound 1 µM, first compound 0.3 µM
[19] = second compound 3.16 µM, first compound 0.000949 µM
[20] = second compound 3.16 µM, first compound 0.003 µM
[21] = second compound 3.16 µM, first compound 0.00949 µM
[22] = second compound 3.16 µM, first compound 0.03 µM
[23] = second compound 3.16 µM, first compound 0.0949 µM
[24] = second compound 3.16 µM, first compound 0.3 µM
[25] = second compound 10 µM, first compound 0.000949 µM
[26] = second compound 10 µM, first compound 0.003 µM
[27] = second compound 10 µM, first compound 0.00949 µM
[28] = second compound 10 µM, first compound 0.03 µM
[29] = second compound 10 µM, first compound 0.0949 µM
[30] = second compound 10 µM, first compound 0.3 µM
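Further: spheroids exposed to compounds for 7 days before readout.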
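Wherever viability, T/C is given: 100% = DMSO vehicle control wells.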

In the case of `CCc1c2c(nc3ccc(O)cc13)-c1cc3c(c(=O)n1C2)COC(=O)[C@]3(O)CC` + NC1CC1c1ccc(-c2cccc(O)c2)cc1, the IC50 (second compound 0.1 µM) is reported as 4.88 nM, the IC50 (second compound 0.316 µM) is reported as 2.4 nM and the IC50 (second compound 1 µM) is reported as 2.71 nM. It also gave an IC50 (second compound 3.16 µM) of 2.26 nM, an IC50 (second compound 10 µM) of 3.52 nM and a viability, T/C [1] of 62.5%. It also gave a viability, T/C [2] of 52.5%, a viability, T/C [3] of 47.3% and a viability, T/C [4] of 33.7%. It also gave a viability, T/C [5] of 36.4%, a viability, T/C [6] of 33.5% and a viability, T/C [7] of 54.3%. It also gave a viability, T/C [8] of 51.7%, a viability, T/C [9] of 45.5% and a viability, T/C [10] of 35%. The viability, T/C [11] was 36.7%, the viability, T/C [12] was 40.2% and the viability, T/C [13] was 60.5%. The viability, T/C [14] was 51.9%, the viability, T/C [15] was 41.3% and the viability, T/C [16] was 39%. It also gave a viability, T/C [17] of 43.9%, a viability, T/C [18] of 42.7% and a viability, T/C [19] of 57%. It also gave a viability, T/C [20] of 48.7%, a viability, T/C [21] of 42.3% and a viability, T/C [22] of 33.5%. The viability, T/C [23] was 36.7%, the viability, T/C [24] was 34.5% and the viability, T/C [25] was 58.7%. For the same compound, the viability, T/C [26] was 50.8%, the viability, T/C [27] was 42.5% and the viability, T/C [28] was 35.3%. The viability, T/C [29] was 32% and the viability, T/C [30] was 38.8%.
For `Nc1ccn(C2OC(CO)C(O)C2(F)F)c(=O)n1` (stereo not given) + NC1CC1c1ccc(-c2cccc(O)c2)cc1, the IC50 (second compound 0.1 µM) was greater than 300 nM, the IC50 (second compound 0.316 µM) was 46.5 nM and the IC50 (second compound 1 µM) was 153 nM. The IC50 (second compound 3.16 µM) was 25.5 nM, the IC50 (second compound 10 µM) was 110 nM and the viability, T/C [1] was 62.5%. For the same compound, the viability, T/C [2] was 58.5%, the viability, T/C [3] was 95.2% and the viability, T/C [4] was 58%. It also gave a viability, T/C [5] of 63.7%, a viability, T/C [6] of 48.5% and a viability, T/C [7] of 67.2%. For the same compound, the viability, T/C [8] was 56.3%, the viability, T/C [9] was 99.8% and the viability, T/C [10] was 51.4%. It also gave a viability, T/C [11] of 51.2%, a viability, T/C [12] of 44.2% and a viability, T/C [13] of 57.1%. The viability, T/C [14] was 51.7%, the viability, T/C [15] was 87% and the viability, T/C [16] was 53.9%. The viability, T/C [17] was 46.5%, the viability, T/C [18] was 47.1% and the viability, T/C [19] was 58.4%. For the same compound, the viability, T/C [20] was 62.2%, the viability, T/C [21] was 97.8% and the viability, T/C [22] was 46.3%. For the same compound, the viability, T/C [23] was 44%, the viability, T/C [24] was 48.4% and the viability, T/C [25] was 64.9%. The viability, T/C [26] was 51.4%, the viability, T/C [27] was 87.2% and the viability, T/C [28] was 47.6%. It also gave a viability, T/C [29] of 46.2% and a viability, T/C [30] of 44.9%.
`O=C(c1cc(Cc2n[nH]c(=O)c3ccccc23)ccc1F)N1CCN(C(=O)C2CC2)CC1` + NC1CC1c1ccc(-c2cccc(O)c2)cc1 showed an IC50 (second compound 0.1 µM) greater than 10000 nM, an IC50 (second compound 0.316 µM) greater than 10000 nM and an IC50 (second compound 1 µM) greater than 10000 nM. It also gave an IC50 (second compound 3.16 µM) greater than 10000 nM, an IC50 (second compound 10 µM) greater than 10000 nM and a viability, T/C (second compound 0.1 µM, first compound 0.0316 µM) of 112%. For the same compound, the viability, T/C (second compound 0.1 µM, first compound 0.1 µM) was 115%, the viability, T/C (second compound 0.1 µM, first compound 0.316 µM) was 106% and the viability, T/C (second compound 0.1 µM, first compound 1 µM) was 113%. For the same compound, the viability, T/C (second compound 0.1 µM, first compound 3.16 µM) was 95.7%, the viability, T/C (second compound 0.1 µM, first compound 10 µM) was 92.5% and the viability, T/C (second compound 0.316 µM, first compound 0.0316 µM) was 105%. The viability, T/C (second compound 0.316 µM, first compound 0.1 µM) was 110%, the viability, T/C (second compound 0.316 µM, first compound 0.316 µM) was 132% and the viability, T/C (second compound 0.316 µM, first compound 1 µM) was 97.4%. For the same compound, the viability, T/C (second compound 0.316 µM, first compound 3.16 µM) was 107%, the viability, T/C (second compound 0.316 µM, first compound 10 µM) was 115% and the viability, T/C (second compound 1 µM, first compound 0.0316 µM) was 117%. It also gave a viability, T/C (second compound 1 µM, first compound 0.1 µM) of 104%, a viability, T/C (second compound 1 µM, first compound 0.316 µM) of 114% and a viability, T/C (second compound 1 µM, first compound 1 µM) of 93.8%. For the same compound, the viability, T/C (second compound 1 µM, first compound 3.16 µM) was 93.3%, the viability, T/C (second compound 1 µM, first compound 10 µM) was 94.7% and the viability, T/C (second compound 3.16 µM, first compound 0.0316 µM) was 98.1%. It also gave a viability, T/C (second compound 3.16 µM, first compound 0.1 µM) of 103%, a viability, T/C (second compound 3.16 µM, first compound 0.316 µM) of 117% and a viability, T/C (second compound 3.16 µM, first compound 1 µM) of 106%. It also gave a viability, T/C (second compound 3.16 µM, first compound 3.16 µM) of 100%, a viability, T/C (second compound 3.16 µM, first compound 10 µM) of 99.3% and a viability, T/C (second compound 10 µM, first compound 0.0316 µM) of 118%. The viability, T/C (second compound 10 µM, first compound 0.1 µM) was 121%, the viability, T/C (second compound 10 µM, first compound 0.316 µM) was 120% and the viability, T/C (second compound 10 µM, first compound 1 µM) was 120%. For the same compound, the viability, T/C (second compound 10 µM, first compound 3.16 µM) was 95.8% and the viability, T/C (second compound 10 µM, first compound 10 µM) was 94.2%.

From PubChem BioAssay AID1918942 (Molecular Pharmacology Branch, DTP, NCI, 2023)
